Test results taken from patent US12054509B2, “Antimicrobial compounds, compositions, and uses thereof” (Lakewood Amedex, Inc., priority 2017, dated 2024).

Columns and labels:
[1] = tested on: Helicobacter pylori SS1 (CagA+, VacA+); test: Helicobacter pylori SS1 infection in C57BL6 mice, bacterial stomach titers; assay type: in vivo
From the text: The mouse strain used in this study is C57BL6 ranging from 5-6 weeks in age and 18-22 grams in weight. Mice are housed five to a cage with free access to food and water in accordance with NIB guidelines.
A bacterial strain of Helicobacter pylori SS1 (CagA+, VacA+) is adapted for the mouse model from a human clinical isolate and validated in this infection model.
At 6 days prior to infection, a frozen stock is streaked onto one to two Columbia 5% sheep blood agar plates, and the plates are microaerophilically incubated for 72 hours at 37° C. After 72 hours, the plate growth is subcultured onto five Columbia 5% sheep blood agar plates and is incubated as before. After another 72 hours of incubation, the plates are removed, and the plate growth is suspended in sterile 0.9% saline to an OD of 1.5-2.0 at 530 nm. This OD is approximately equal to 1.0e+09 CFU/mL, which is used to orally infect the mice on all 3 infection days. To infect mice, the mice are orally dosed 0.25 mL of the 1.0e+09 CFU/mL via a 20-22 G gavage needle. Mice need to be fasted only before the first infection.
At 1 week post-infection, mice are treated with Nu-8. Multiple dose antibiotic therapies are administered orally at 0.2 mL/dose. Antibiotics are administered 2 times per day and continued for 7 days. The control group is administered the vehicle alone.
Food is removed from cages 18 hours prior to euthanizing animals and each cage is clearly labeled that the animals are being experimentally fasted. Mice are euthanized (CO2 & cervical dislocation). […] The excised stomach is placed into a sterile petri dish and the luminal contents are rinsed away with sterile 1×PBS. Each rinsed stomach is placed into a 14-mL Falcon tube containing 2 mL of 1×PBS and stored on ice. Each stomach is homogenized, 10-fold serial diluted in 1×PBS, spot plated onto Columbia agar with 3.5% laked horse blood±the DENT selective antibiotic supplement, and microaerophilically incubated for 5 days at 37° C. Then, colonies are counted.
Nu-8 is administered at various doses (mg/kg), orally, twice-a-day for 7 days. The formulations, concentration and dose volumes for treatment is established prior to dosing. The positive control group consists of a triple therapy regimen (omeprazole, amoxicillin, and clarithromycin). Negative control used dosing solution without drugs.

[2] = tested on: Escherichia coli; test: MIC against a single isolate (Example 26); assay type: cell-based; conditions: single isolate, read-out: E. coli MIC
Procedure: (§1) Bacterial strains evaluated in this study include Escherichia coli, Klebsiella spp, Serratia marcescens, Proteus mirabilis/vulgaris, Citrobacter spp, Providencia spp, Morganella morganii, Pseudomonas aeruginosa, Staphylococcus aureus (MRSA only), and Enterococcus faecalis. Nu-8 test solutions are adjusted to pH 3.5 with citric acid, and MIC is evaluated per the CLSI methods in Mueller-Hinton broth supplemented accordingly to facilitate growth of specific strains.
(§2) MIC was determined as per Example 9 using LAI-101, LAI-102, Nu-10, LAI-105, LAI-106, Nu-3, and Nu-8 against a single isolate of Escherichia coli. Pseudomonas aeruginosa, Staphylococcus aureus (MRSA only), and Candida Albicans. For all microbe species, the LAI-101, LAI-102, Nu-10, LAI-105, and LAI-106 all perform at least as well as, and in many experiments better than, Nu-8 and Nu-3, which are both already quite active compounds.

[3] = tested on: Pseudomonas aeruginosa; test: MIC against a single isolate (Example 26); assay type: cell-based; conditions: single isolate, read-out: P. aeruginosa MIC
Procedure: as §1, §2

[4] = tested on: Candida Albicans; test: MIC against a single isolate (Example 26); assay type: cell-based; conditions: single isolate, read-out: C. albicans MIC
Procedure: as §1, §2

[5] = tested on: Staphylococcus aureus (MRSA only); test: MIC against a single isolate (Example 26); assay type: cell-based; conditions: single isolate, read-out: S. aureus MIC
Procedure: as §1, §2

[6] = tested on: Haemophilus influenzae; test: MIC at pH 3.5 (CLSI, Mueller-Hinton broth); assay type: cell-based; conditions: 5 isolates
[7] = tested on: P. aeruginosa K2732; test: Bacterial cytological profiling (Example 6), P. aeruginosa; assay type: cell-based;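 as to effect on cell envelope: tested at 1 0.5 and 0.25 times MIC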
Procedure: This bacterial cytological profiling (BCP) study uses methods and materials described previously by Nonejuie, P., Burkart, M., Poglianoa, K., Pogiano, J. (2013). Bacterial cytological profiling rapidly identifies the cellular pathways targeted by antibacterial molecules. Proc. Natl. Acad. Sci. U.S.A. 110(40):16169-16174. doi: 10.1073/pnas.1311066110.
Wild type strains of E. coli ATCC 25922 or P. aeruginosa K2732 are grown in rich media (unbuffered 2× Lysogeny broth [LB]) at 30 C to an OD600˜0.4. These cultures are then split and each sample treated with the appropriate concentration of Nu-8 in unbuffered or buffered LB (final mixture OD600˜0.1). Cells exposed without Nu-8 are buffered to pH 4 with phosphoric acid.
The BCP is performed in LB media buffered to pH 4. The minimum inhibitory concentration (MIC) is measured for Nu-3, Nu-4, Nu-5, and Nu-8 against each bacterial strain. As one of ordinary skill in the art understands, minimum inhibitory concentrations are the lowest concentration of an antimicrobial that will inhibit the visible growth of a microorganism after overnight incubation. […] Cellular viability is assayed at three time points (5 minutes and 4 and 24 h following the onset of treatment).
For imaging E. coli, treated cells are stained with 1 μg/Ml FM4-64, 2 μg/mL DAPI, and 0.5 μM SYTOXGreen (Molecular Probes/Invitrogen). P. aeruginosa samples are stained 0.5 μM SYTOX Green, 28 μg/mL DAPI, and 4.5 μg/mL FM 4-64. Cells are transferred to an agarose pad (20% LB, 1% agarose) for imaging as described in Pogliano, J., Osborne, N., Sharp, M. D., Abanes-De Mello, A., Perez, A., Sun, Y.-L. and Pogliano, K. (1999), A vital stain for studying membrane dynamics in bacteria: a novel mechanism controlling septation during Bacillus subtilis sporulation. Molecular Microbiology, 31: 1149-1159. doi:10.1046/j.1365-2958.1999.01255.x.

For `CCCCOP(=O)(O)OC[C@H]1O[C@@H](n2ccc(N)nc2=O)C[C@@H]1OP(=O)(O)OCCCC` [Nu-8, sodium ((2R,3S,5R)-5-(4-amino-2-oxopyrimidin-1(2H)-yl)-3-((butoxyoxidophosphor-yl)oxy)tetrahydrofuran-2-yl)methyl butyl phosphate], the “mean bacterial stomach titer” value ([1]; 0.2 mg (1 mg/mL, 0.2 mL) PO bid 7 days, +7 Days) was 5.62 log10 CFU, the “mean bacterial stomach titer” value ([1]; 0.2 mg (1 mg/mL, 0.2 mL) PO bid 7 days, +14 Days) was 6.2 log10 CFU and the “mean bacterial stomach titer” value ([1]; 1.0 mg (5 mg/mL, 0.2 mL) PO bid 7 days, +7 Days) was 5.21 log10 CFU. For the same compound, the “mean bacterial stomach titer” value ([1]; 1.0 mg (5 mg/mL, 0.2 mL) PO bid 7 days, +14 Days) was 5.67 log10 CFU, the “mean bacterial stomach titer” value ([1]; 2 mg (10 mg/mL, 0.2 mL) PO bid 7 days, +7 Days) was 4.74 log10 CFU and the “mean bacterial stomach titer” value ([1]; 2 mg (10 mg/mL, 0.2 mL) PO bid 7 days, +14 Days) was 5.81 log10 CFU. The MIC [2] was > 50 mg/mL, the MIC [3] was > 50 mg/mL and the MIC [4] was > 50 mg/mL. The MIC [5] was > 50 mg/mL, the MIC [6] was 4.69 to 9.38 mg/mL and the “effect on cell envelope” value ([7]; BCP) was “affect the cell envelope”. The cell membrane permeability ([7]; buffered pH 4 or unbuffered LB) was “increase cell membrane permeability”.
